Paper PMC4890880 (ACS infectious diseases, 2016)
Read-outs that look alike come from different tables or passages of the source.

What was measured:
[1] = system: Plasmodium berghei (Pb-Luc) exoerythrocytic-stage parasites; assay: microbe, parasite or virus in culture
HepG2-A16-CD81EGFP cells [2] = assay: cells; conditions: Homo sapiens, HepG2, read-out: % inhibition
HepG2-A16-CD81EGFP cells [3] = conditions: human, 50 uM
HepG2-A16-CD81EGFP cells [4] = assay: cells; conditions: Homo sapiens; for IC50: HepG2, read-out: Tox IC50; for inhibition at 50 µM: HepG2, read-out: Tox max inhibition (%) @ 50 uM
[5] = biological target: QuantiLum Recombinant Luciferase (Photinus pyralis, UniProt P08659); assay: Bioluminescence quantification of compound luciferase inhibition; conditions: for Emax: read-out: LucInhib max inhibition
[6] = read-out: Inhibition% @ 50 uM rep1
[7] = read-out: Inhibition% @ 50 uM rep2
[8] = HepG2, read-out: HepG2 Tox% @ 50 uM rep1
[9] = read-out: PbLuc IC50, dose response, unit inferred
[10] = read-out: PbLuc max inhibition (%) @ 50 uM
[11] = read-out: PbLuc IC50, dose response, 1/3 dilutions, max conc. 10 or 50 uM, unit inferred
[12] = HepG2, read-out: HepG2 Tox% @ 50 uM rep2

Sequence of QuantiLum Recombinant Luciferase (P08659 whole entry): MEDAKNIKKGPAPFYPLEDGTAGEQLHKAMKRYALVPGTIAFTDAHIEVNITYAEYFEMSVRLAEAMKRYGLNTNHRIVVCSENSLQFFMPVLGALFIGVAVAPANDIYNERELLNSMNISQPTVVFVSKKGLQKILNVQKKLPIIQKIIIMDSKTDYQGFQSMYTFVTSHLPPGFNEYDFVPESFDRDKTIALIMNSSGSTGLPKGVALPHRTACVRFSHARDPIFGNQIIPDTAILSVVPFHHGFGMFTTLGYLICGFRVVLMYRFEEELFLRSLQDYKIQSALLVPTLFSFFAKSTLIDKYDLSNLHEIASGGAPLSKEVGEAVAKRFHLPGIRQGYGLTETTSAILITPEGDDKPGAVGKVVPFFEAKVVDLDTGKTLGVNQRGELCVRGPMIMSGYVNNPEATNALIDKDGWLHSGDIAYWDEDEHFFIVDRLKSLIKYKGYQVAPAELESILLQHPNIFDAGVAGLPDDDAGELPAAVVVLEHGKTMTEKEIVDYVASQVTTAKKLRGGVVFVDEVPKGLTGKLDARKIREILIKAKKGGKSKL

| Structure (SMILES) | inhibition at 50 µM [1, 6] | inhibition at 50 µM [1, 7] | inhibition at 50 µM (HepG2-A16-CD81EGFP cells [2]) | HepG2 Tox% @ 50 uM rep1 (HepG2-A16-CD81EGFP cells [3]) | HepG2 Tox% @ 50 uM rep2 (HepG2-A16-CD81EGFP cells [3]) | cytotoxicity at 50 µM (HepG2-A16-CD81EGFP cells [4]; [8]) | IC50 (HepG2-A16-CD81EGFP cells [4]) | inhibition at 50 µM (HepG2-A16-CD81EGFP cells [4]) | IC50 [5] | Emax [5] | IC50 [1, 9] | inhibition at 50 µM [1, 10] | IC50 [1, 11] | cytotoxicity at 50 µM (HepG2-A16-CD81EGFP cells [4]; [12]) | inhibition at 10 µM (HepG2-A16-CD81EGFP cells [4]; HepG2, read-out: Tox max inhibition (%) @ 10 uM) | inhibition at 10 µM ([1]; read-out: PbLuc max inhibition (%) @ 10 uM) |
| --- | --- | --- | --- | --- | --- | --- | --- | --- | --- | --- | --- | --- | --- | --- | --- | --- |
| CCOc1cc2c(cc1OCC)C(c1cc(Cl)c(O)c(OCC)c1)NCC2 (centres unmarked) [MMV000481] | 73% | 75% | 20.4% | 20% | – | – | – | – | – | – | – | – | – | – | – | – |
| CCN(CC)c1cc(C)c2cc(NC(=O)c3cccc(OC)c3)ccc2n1 [MMV000498] | 104% | 106% | 99.5% | 100% | 101% | – | – | – | – | – | – | – | – | – | – | – |
| CCc1ccc(Nc2cc(C)c3ccc(O)cc3n2)cc1 [MMV000570] | 103% | 105% | 98.1% | – | 100% | – | – | – | – | – | – | – | – | – | – | – |
| COc1ccc2c(c1OC)C(=O)N1c3ccccc3N=C(c3ccc(C)cc3)CC21 (centres unmarked) [MMV000917] | 96% | 95% | – | – | – | 15% | > 50 µM | 7% | > 50 µM | 23% | > 50 µM | 96% | – | – | – | – |
| COc1ccc(Nc2nc(NCc3ccccc3)c3ccccc3n2)cc1 [MMV000963] | 103% | 106% | 99.3% | – | 100% | – | – | – | – | – | – | – | – | – | – | – |
| CN1CCN(c2nc(Nc3ccc(O)cc3)nc3ccccc23)CC1 [MMV000986] | 86% | 90% | – | – | – | 25% | > 50 µM | 7% | 21.9 µM | 69% | – | 94% | 20.4 µM | – | – | – |
| CCOc1cccc2sc(N(Cc3cccnc3)C(=O)C3CCCCC3)nc12 [MMV001230] | 102% | 103% | 97.3% | – | 99% | – | – | – | – | – | – | – | – | – | – | – |
| COc1ccc(C)c2sc(N(Cc3cccnc3)C(=O)c3ccc(C#N)cc3)nc12 [MMV001241] | 100% | 102% | – | – | – | 18% | > 50 µM | 22% | > 50 µM | 7% | 21.5 µM | 101% | – | – | – | – |
| O=C(NCc1ccco1)C1CCN(S(=O)(=O)c2ccc(Cl)cc2)CC1 [MMV006188] | 102% | 102% | – | – | – | 22% | > 50 µM | 28% | > 50 µM | 22% | – | 106% | 0.707 µM | 28% | – | – |
| CCOC(=O)c1cnc2c(C)cccc2c1Nc1ccc(C(C)=O)cc1 [MMV006250] | 88% | 91% | – | – | – | 18% | > 50 µM | 0% | > 50 µM | 27% | 28.2 µM | 84% | – | – | – | – |
| CCCCc1c(C)nc2c(OC)cccc2c1O [MMV006820] | 99% | 102% | – | – | – | -15% | > 10 µM | – | > 20 µM | 41% | – | – | 0.162 µM | -12% | 15% | 110% |
| COc1ccc(CCNC(=O)c2cc(S(=O)(=O)N3CC(C)CC(C)C3)ccc2Sc2ccc(F)cc2)cc1OC (centres unmarked) [MMV007557] | 19% | 15% | -11.7% | -12% | – | – | – | – | – | – | – | – | – | – | – | – |
| COc1ccc2nc(C)cc(Nc3ccc(Cl)cc3)c2c1 [MMV007875] | 99% | 101% | 94.8% | – | 99% | – | – | – | – | – | – | – | – | – | – | – |
| OC(CNC1CCCCC1)Cn1c2ccccc2c2ccccc21 (centres unmarked) [MMV009063] | 104% | 105% | 98.6% | – | 101% | – | – | – | – | – | – | – | – | – | – | – |
| COc1cccc(Nc2nc(NCCO)c3ccccc3n2)c1 [MMV011944] | 103% | 106% | 99.7% | 100% | 101% | – | – | – | – | – | – | – | – | – | – | – |
| COCCNCC(O)Cn1c2ccc(Cl)cc2c2cc(Cl)ccc21 (centres unmarked) [MMV019017] | 103% | 102% | 96.7% | – | 99% | – | – | – | – | – | – | – | – | – | – | – |
| Cn1c(=O)c2cc(C(=O)NCCCN3CCCCCC3)sc2c2ccccc21 [MMV019313] | 104% | 106% | 99.9% | 100% | – | – | – | – | – | – | – | – | – | – | – | – |
| CCN1CCN(Cc2ccc(NC(=O)c3cc4ccc5cccnc5c4[nH]3)cc2)CC1 [MMV020548] | 102% | 106% | 98.4% | – | 100% | – | – | – | – | – | – | – | – | – | – | – |
| O=C(Nc1ccc(CN2CCOCC2)cc1)c1ccc(-c2cc(Cl)ccc2Cl)o1 [MMV020651] | 100% | 99% | 93.9% | – | 96% | – | – | – | – | – | – | – | – | – | – | – |
